Assay results published in ChEMBL document CHEMBL1667775, “Design, synthesis and biological evaluation of new thalidomide analogues as TNF-α and IL-6 production inhibitors” (Bioorg Med Chem Lett, 2011).
Calls of active or inactive are those of the source. No cut-off for these calls is given here.

Columns and labels:
PBMC [1] = test: Cytotoxicity against human PBMC at 1 to 100 uM after 48 hrs by propidium iodure labeling; type: cell-based
PBMC [2] = test: Cytotoxicity against human PBMC at 1 to 100 uM after 48 hrs by flow cytometry; type: cell-based
PBMC [3] = test: Antiinflammatory activity in human PBMC assessed as inhibition of LPS-induced TNFalpha production at 1 to 100 uM after 48 hrs by ELISA; type: functional, cell-based
PBMC [4] = test: Antiinflammatory activity in human PBMC assessed as inhibition of LPS-induced IL-6 production at 1 to 100 uM after 48 hrs by ELISA; type: functional, cell-based
PBMC [5] = test: Antiinflammatory activity in human PBMC assessed as inhibition of LPS-induced TNFalpha production after 48 hrs by ELISA; type: functional, cell-based
PBMC [6] = test: Antiinflammatory activity in human PBMC assessed as inhibition of LPS-induced IL-6 production at 1 to 10 uM after 48 hrs by ELISA; type: functional, cell-based
PBMC [7] = test: Antiinflammatory activity in human PBMC assessed as inhibition of LPS-induced IL-6 production at 100 uM after 48 hrs by ELISA; type: functional, cell-based
PBMC [8] = test: Antiinflammatory activity in human PBMC assessed as inhibition of LPS-induced TNFalpha production at 1 to 10 uM after 48 hrs by ELISA; type: functional, cell-based
PBMC [9] = test: Antiinflammatory activity in human PBMC assessed as inhibition of LPS-induced TNFalpha production at 100 uM after 48 hrs by ELISA; type: functional, cell-based

Structure (SMILES) | Activity (PBMC [1]) | Activity (PBMC [2]) | Activity (PBMC [3]) | Activity (PBMC [4]) | Activity (PBMC [5]) | Activity (PBMC [6]) | Activity (PBMC [7]) | Activity (PBMC [8]) | Activity (PBMC [9])
Cc1ccc(S(=O)(=O)N2C(=O)c3cc4ccccc4n3C2=O)cc1 | Non-toxic | Non-toxic |  |  |  |  |  |  | 
O=C1c2cc3cccnc3n2C(=O)N1S(=O)(=O)c1ccccc1 | Non-toxic | Non-toxic | Active | inactive |  |  |  |  | 
O=C(Nc1cccc(S(=O)(=O)N2CCSCC2)c1)c1cc2cccnc2[nH]1 | Non-toxic | Non-toxic | inactive | inactive |  |  |  |  | 
O=C(Nc1ccccc1)c1cc2cccnc2n1S(=O)(=O)c1ccccc1 | Non-toxic | Non-toxic |  | Active | Dose-dependent effect |  |  |  | 
CCOC(=O)c1ccc(S(=O)(=O)CN2C(=O)C3Cc4ccccc4CN3S2(=O)=O)cc1 (centres undefined) | Non-toxic | Non-toxic |  |  |  | inactive | Active | inactive | Active
O=C(Nc1cccc(S(=O)(=O)N2CCN(c3ccccc3)CC2)c1)c1cc2cccnc2[nH]1 | Non-toxic | Non-toxic | inactive | inactive |  |  |  |  | 
O=C1C2Cc3ccccc3N2C(=O)N1S(=O)(=O)c1ccc2ccccc2c1 (centres undefined) | Non-toxic | Non-toxic |  |  |  |  |  |  | 
O=C(Nc1ccccc1)c1cc2cccnc2[nH]1 | Non-toxic | Non-toxic | inactive | inactive |  |  |  |  | 
O=C(Nc1cccc(S(=O)(=O)N2CCOCC2)c1)c1cc2cccnc2[nH]1 | Non-toxic | Non-toxic | inactive | inactive |  |  |  |  | 
